Assay results from PubChem BioAssay AID2060626 (Molecular Pharmacology Branch, DTP, NCI, 2025).
Values joined by “and” are separate entries in the source; they are usually repeats but may differ in a detail not shown here. Equal values may be shown once.

System: 168753-222-R-J1-PDC complex spheroid viability
Experiment: Anticancer human tumor 168753-222-R-J1-PDC patient-derived bladder carcinoma cell line growth inhibition [CLK]
Settings: for viability, T/C: stronger effect = lower value
Source text: A high-throughput screen of multi-cell type tumor spheroids was designed to identify active combinations of […] and targeted small molecules. Complex spheroids include a stromal component modeled by human endothelial cells (HUVEC) and fibroblasts modeled by human mesenchymal stem cells (MSCs). The concentration ranges selected for each drug and investigational agent were based upon clinically achievable concentrations if the clinical Cmax of the agent was known.
Compounds. The drugs and investigational agents: cirtuvivint (SM08502; NSC835563), CC-671 (NSC850746), vemurafenib (NSC761431), tapotoclax (NSC804041), sotorasib (NSC818433), adagrasib (NSC831453), MRTX-1133 (NSC836407), BAY2416964 (NSC825713), copanlisib (NSC816437), inavolisib (NSC800729), abemaciclib (NSC768073), osimertinib (NSC779217), entinostat (NSC756642), eltanexor (KPT-8602, NSC794443), venetoclax (NSC766270), ceralasertib (NSC777638), bortezomib (NSC756655), olaparib (NSC753686), talazoparib (NSC767125), alisertib (NSC759677), peposertib (NSC802822), gemcitabine (NSC613327), 5-fluorouracil (NSC19893), SN-38 (NSC673596), oxaliplatin (NSC266046), paclitaxel (NSC125973), and doxorubicin (NSC123127), were obtained from the National Cancer Institute (NCI) Developmental Therapeutics Program Chemical Repository. The FDA-approved anticancer drug set is available from the Developmental Therapeutics Program at https://dtp.cancer.gov/organization/dscb/obtaining/available plates.htm. […] The stock solutions were prepared in dimethyl sulfoxide (DMSO, Sigma-Aldrich, St. Louis, MO, cat. D2650), except for the platinum complexes which were prepared in saline (Quality Biological, Gaithersburg, MD, cat. 114-055-101), at 800-fold the tested concentration and stored at -70 degrees C prior to their use. All drugs and investigational agents were tested over a range starting from a high concentration at or near the clinical Cmax and decreasing in half-log increments. If the clinical Cmax for an agent had not been determined, the highest concentration tested was 10 microM.
Cell Culture. All cells were maintained in an incubator at 37 degrees C and 5% CO2 with 95% humidity. The PDC lines were cultured according to standard operating procedures established by the NCI PDMR. Briefly, all PDCs were thawed and cultured in Matrigel-coated flasks prepared with a working solution of 1X Ham's F-12 nutrient mix, without supplementation (Invitrogen, Waltham, MA, cat. 11765054), 100 U/mL penicillin-streptomycin (Invitrogen, cat. 15140122), and 2.5% Matrigel (Corning Inc., Corning, NY, cat. 354248) for the first three passages. The 947758-054-R-J2-PDC line was cultured in 6B/Colon 1A media, which includes advanced DMEM/F-12 (Thermo Fisher Scientific, cat. 12634028), 10 mM HEPES (Thermo Fisher Scientific, cat. 15630080), 1X GlutaMAX supplement (Thermo Fisher Scientific, cat. 35050061), 0.1 mg/mL primocin (InvivoGen, cat. ant-pm-2), 10% defined fetal bovine serum, heat inactivated (HyClone Laboratories Inc., cat. SH30070.03HI), 1.25 mM N-Acetyl-L-cysteine (Sigma-Aldrich, cat. A9165), 10 mM nicotinamide (Sigma-Aldrich, cat. N0636), 1X B-27 supplement (Thermo Fisher Scientific, cat. 17504044), 1X N-2 supplement (Thermo Fisher Scientific, cat. 17502048), and 10 microM Y-27632 dihydrochloride (Tocris Bioscience, cat. 1254). The 876862-298-R-J1-PDC was cultured in 6E media, which includes all 6B/Colon 1A media components plus 50% L-WRN conditioned media (ATCC, cat. CRL-3276), 50 ng/mL recombinant human EGF recombinant protein (hEGF; Thermo Fisher Scientific, cat. PHG0311), 10 ng/mL recombinant human fibroblast growth factor 10 (hGFG-10; PeproTech, cat. 100-26), 1 ng/mL recombinant human fibroblast growth factor 2 (hFGF-2; PeproTech, cat. 100-18B), and 1 µM prostaglandin E2 (PGE2; Tocris, cat. 2296). The 227483-062-R1-J1-PDC line was cultured in Panc media, containing all 6E components except hFGF-2, with the addition of 500 nM SB-431542 (Selleckchem, cat. S1067) and 10 nM gastrin (Tocris, cat. 3006). […]

[1] = curve of first compound, second compound 0.0316 µM
[2] = curve of first compound, second compound 0.1 µM
[3] = curve of first compound, second compound 0.316 µM
[4] = curve of first compound, second compound 1 µM
[5] = curve of first compound, second compound 3.16 µM
[6] = curve of first compound, second compound 10 µM
[7] = second compound 0.0316 µM, first compound 0.0316 µM
[8] = second compound 0.0316 µM, first compound 0.1 µM
[9] = second compound 0.0316 µM, first compound 0.316 µM
[10] = second compound 0.0316 µM, first compound 1 µM
[11] = second compound 0.0316 µM, first compound 3.16 µM
[12] = second compound 0.0316 µM, first compound 10 µM
[13] = second compound 0.1 µM, first compound 0.0316 µM
[14] = second compound 0.1 µM, first compound 0.1 µM
[15] = second compound 0.1 µM, first compound 0.316 µM
[16] = second compound 0.1 µM, first compound 1 µM
[17] = second compound 0.1 µM, first compound 3.16 µM
[18] = second compound 0.1 µM, first compound 10 µM
[19] = second compound 0.316 µM, first compound 0.0316 µM
[20] = second compound 0.316 µM, first compound 0.1 µM
[21] = second compound 0.316 µM, first compound 0.316 µM
[22] = second compound 0.316 µM, first compound 1 µM
[23] = second compound 0.316 µM, first compound 3.16 µM
[24] = second compound 0.316 µM, first compound 10 µM
[25] = second compound 1 µM, first compound 0.0316 µM
[26] = second compound 1 µM, first compound 0.1 µM
[27] = second compound 1 µM, first compound 0.316 µM
[28] = second compound 1 µM, first compound 1 µM
[29] = second compound 1 µM, first compound 3.16 µM
[30] = second compound 1 µM, first compound 10 µM
[31] = second compound 3.16 µM, first compound 0.0316 µM
[32] = second compound 3.16 µM, first compound 0.1 µM
[33] = second compound 3.16 µM, first compound 0.316 µM
[34] = second compound 3.16 µM, first compound 1 µM
[35] = second compound 3.16 µM, first compound 3.16 µM
[36] = second compound 3.16 µM, first compound 10 µM
[37] = second compound 10 µM, first compound 0.0316 µM
[38] = second compound 10 µM, first compound 0.1 µM
[39] = second compound 10 µM, first compound 0.316 µM
[40] = second compound 10 µM, first compound 1 µM
[41] = second compound 10 µM, first compound 3.16 µM
[42] = second compound 10 µM, first compound 10 µM
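Further: viability measured after seven days of drug exposure.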
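Wherever viability, T/C is given: luminescence signal used as surrogate for viable cell amount; 100% = DMSO vehicle control wells.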

Question: With `Nc1ccn(C2OC(CO)C(O)C2(F)F)c(=O)n1` (stereo unspecified) + CNC(=O)c1ccc(Nc2nc(OC3CCCC3)c3c(-c4ccc5nc(C)oc5c4)c[nH]c3n2)c(OC)c1 as the molecule, how does the IC50 [1] read?
Answer: 975 nM

Question: And the IC50 [2]?
Answer: 629 nM

Question: What about the IC50 [3] of the same molecule?
Answer: 157 nM

Question: And the IC50 [4]?
Answer: < 31.6 nM

Question: And the IC50 [5]?
Answer: < 31.6 nM

Question: What about the IC50 [6] of the same molecule?
Answer: < 31.6 nM

Question: What about the viability, T/C [7] of the same molecule?
Answer: 95.2%

Question: And the viability, T/C [8]?
Answer: 73.2%

Question: And the viability, T/C [9]?
Answer: 48.7%

Question: And the viability, T/C [10]?
Answer: 57.2%

Question: And the viability, T/C [11]?
Answer: 51.2%

Question: What about the viability, T/C [12] of the same molecule?
Answer: 37.9%

Question: And the viability, T/C [13]?
Answer: 88.4%

Question: What about the viability, T/C [14] of the same molecule?
Answer: 75.7%

Question: What about the viability, T/C [15] of the same molecule?
Answer: 50.3%

Question: What about the viability, T/C [16] of the same molecule?
Answer: 49.9%

Question: What about the viability, T/C [17] of the same molecule?
Answer: 34.2%

Question: And the viability, T/C [18]?
Answer: 25.4%

Question: What about the viability, T/C [19] of the same molecule?
Answer: 84.2%

Question: And the viability, T/C [20]?
Answer: 64.5%

Question: What about the viability, T/C [21] of the same molecule?
Answer: 28%

Question: What about the viability, T/C [22] of the same molecule?
Answer: 17.1%

Question: And the viability, T/C [23]?
Answer: 26.8%

Question: And the viability, T/C [24]?
Answer: 22.1%

Question: What about the viability, T/C [25] of the same molecule?
Answer: 43.5%

Question: And the viability, T/C [26]?
Answer: 18.9%

Question: What about the viability, T/C [27] of the same molecule?
Answer: 17.9%

Question: What about the viability, T/C [28] of the same molecule?
Answer: 16.4%

Question: And the viability, T/C [29]?
Answer: 16.9%

Question: What about the viability, T/C [30] of the same molecule?
Answer: 17.4%

Question: What about the viability, T/C [31] of the same molecule?
Answer: 21%

Question: And the viability, T/C [32]?
Answer: 18.4%

Question: What about the viability, T/C [33] of the same molecule?
Answer: 18%

Question: And the viability, T/C [34]?
Answer: 16.8%

Question: And the viability, T/C [35]?
Answer: 16.4%

Question: What about the viability, T/C [36] of the same molecule?
Answer: 15.5%

Question: What about the viability, T/C [37] of the same molecule?
Answer: 18.2%

Question: What about the viability, T/C [38] of the same molecule?
Answer: 18.4%

Question: And the viability, T/C [39]?
Answer: 17.4%

Question: What about the viability, T/C [40] of the same molecule?
Answer: 15.4%

Question: And the viability, T/C [41]?
Answer: 17.1%

Question: And the viability, T/C [42]?
Answer: 16.2%

Question: Which results are given for `CC(=O)O[C@H]1C(=O)[C@@]2(C)[C@H]([C@H](OC(=O)c3ccccc3)[C@]3(O)C[C@H](OC(=O)[C@H](O)[C@@H](NC(=O)c4ccccc4)c4ccccc4)C(C)=C1C3(C)C)[C@]1(OC(C)=O)CO[C@@H]1C[C@@H]2O` + CN1CCN(c2cc(C(=O)Nc3cc4cc(-c5cnn(C)c5)ccc4cn3)ccn2)CC1?
Answer: IC50 [1]: < 31.6 nM; IC50 [2]: < 31.6 nM; IC50 [3]: < 31.6 nM; IC50 [4]: < 31.6 nM; IC50 [5]: < 31.6 nM; IC50 [6]: < 31.6 nM; viability, T/C [7]: 22.1%; viability, T/C [8]: 11.1%; viability, T/C [9]: 11.2%; viability, T/C [10]: 10.7%; viability, T/C [11]: 11.2%; viability, T/C [12]: 12.3%; viability, T/C [13]: 12.3%; viability, T/C [14]: 10.6%; viability, T/C [15]: 10.9%; viability, T/C [16]: 9.64%; viability, T/C [17]: 9.88%; viability, T/C [18]: 11.4%; viability, T/C [19]: 10.7%; viability, T/C [20]: 10.2%; viability, T/C [21]: 10.4%; viability, T/C [22]: 9.61%; viability, T/C [23]: 10.3%; viability, T/C [24]: 13.2%; viability, T/C [25]: 0.12%; viability, T/C [26]: 0.32%; viability, T/C [27]: 0.16%; viability, T/C [28]: 0.11%; viability, T/C [29]: 0.15%; viability, T/C [30]: 0.21%; viability, T/C [31]: 0.05%; viability, T/C [32]: 0.19%; viability, T/C [33]: 0.17%; viability, T/C [34]: 0.06%; viability, T/C [35]: 0.09%; viability, T/C [36]: 0.14%; viability, T/C [37]: 0.07%; viability, T/C [38]: 0.11%; viability, T/C [39]: 0.51%; viability, T/C [40]: 0.1%; viability, T/C [41]: 0.17%; viability, T/C [42]: 0.23%

Question: Which results are given for `C#Cc1c(F)ccc2cc(O)cc(-c3ncc4c(N5CC6CCC(C5)N6)nc(OCC56CCCN5CC(F)C6)nc4c3F)c12` (stereo unspecified)?
Answer: viability, T/C (compound 0.0316 µM): 107% and 94.2%; viability, T/C (compound 0.1 µM): 103% and 96.3%; viability, T/C (compound 0.316 µM): 99.5% and 107%; viability, T/C (compound 1 µM): 103% and 97.3%; viability, T/C (compound 3.16 µM): 89.2% and 66.9%; viability, T/C (compound 10 µM): 80.6% and 52.9%; IC50 (curve of compound): > 10000 nM
